This note sets out measurements from patent US9156856B2, “Apoptosis-inducing agents for the treatment of cancer and immune and autoimmune diseases” (AbbVie Inc., priority 2009, dated 2015).

Bcl-2, sequence (P10415 whole entry): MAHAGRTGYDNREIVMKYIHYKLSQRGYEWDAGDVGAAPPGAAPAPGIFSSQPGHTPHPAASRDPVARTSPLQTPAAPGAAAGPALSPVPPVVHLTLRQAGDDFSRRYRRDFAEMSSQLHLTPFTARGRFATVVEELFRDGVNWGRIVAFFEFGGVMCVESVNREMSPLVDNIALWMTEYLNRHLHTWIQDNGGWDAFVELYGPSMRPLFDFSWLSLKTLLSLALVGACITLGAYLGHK

The target of this test is Bcl-2 (Homo sapiens (Human), UniProt P10415). The experiment in a line: Time Resolved-Fluorescence Resonance Energy Transfer (TR-FRET) Bcl-2 binding assay with F-Bak peptide probe. The conditions noted are these: GST-Bcl-2 1 nM, F-Bak peptide probe 100 nM, Tb-anti-GST antibody 1 nM; Ki by Wang's equation. The procedure:
Determination of the utility of compounds having Formula (I) as binders to and inhibitors of anti-apoptotic Bcl-2 proteins was performed using the Time Resolved-Fluorescence Resonance Energy Transfer (TR-FRET) Assay. Tb-anti-GST antibody was purchased from Invitrogen (Catalog No. PV4216).
Representative compounds were serially diluted in dimethyl sulfoxide (DMSO) starting at 50 μM (2× starting concentration; 10% DMSO) and 10 μL were transferred into a 384-well plate. The samples are then mixed on a shaker for 1 minute and incubated for an additional 3 hours at room temperature. For each assay, the probe/antibody and protein/probe/antibody were included on each assay plate as negative and positive controls, respectively. Fluorescence was measured on the ENVISION plate reader (Perkin Elmer) using a 340/35 nm excitation filter and 520/525 (F-Bak peptide) and 495/510 nm (Tb-labeled […] antibody) emission filters Inhibition constants (Ki) are shown in TABLE 2 below and were determined using Wang's equation (Wang Z.-X. An Exact Mathematical Expression For Describing Competitive Binding Of Two Different Ligands To A Protein Molecule. FEBS Lett. 1995, 360:111-4).
The inhibition constant (Ki) is the dissociation constant of an enzyme-inhibitor complex or a protein/small molecule complex, wherein the small molecule is inhibiting binding of one protein to another protein. So a large K, value indicates a low binding affinity and a small Ki value indicates a high binding affinity.
The compounds are therefore expected to have utility in treatment of diseases during which anti-apoptotic Bcl-2 protein is expressed.
In general terms: TR-FRET usually uses a lanthanide donor and a delayed reading to cut background.
In the case of `Cc1nc(C)c(S(=O)(=O)NC(=O)c2ccc(N3CCN(Cc4ccccc4-c4ccc(Cl)cc4)CC3)cc2)s1` [Example 15, 4-{4-[(4′-chloro-1,1′-biphenyl-2-yl)methyl]piperazin-1-yl}-N-[(2,4-dimethyl-1,3-thiazol-5-yl)sulfonyl]benzamide], the inhibition constant (Ki) is 282 nM.

In the case of `Cc1cc(C)n2nc(S(=O)(=O)NC(=O)c3ccc(N4CCN(Cc5ccccc5-c5ccc(Cl)cc5)CC4)cc3)nc2n1` [Example 20, 4-{4-[(4′-chloro-1,1′-biphenyl-2-yl)methyl]piperazin-1-yl}-N-[(5,7-dimethyl[1,2,4]triazolo[1,5-a]pyrimidin-2-yl)sulfonyl]benzamide], the affinity, expressed as Ki, was 48.1 nM.

The compound `Cc1c(S(=O)(=O)NC(=O)c2ccc(N3CCN(Cc4ccccc4-c4ccc(Cl)cc4)CC3)cc2Oc2ccccc2)sc2ccc(Cl)cc12` [Example 39, 4-{4-[(4′-chloro-1,1′-biphenyl-2-yl)methyl]piperazin-1-yl}-N-[(5-chloro-3-methyl-1-benzothien-2-yl)sulfonyl]-2-phenoxybenzamide] displayed an inhibition constant Ki of 20.2 nM.

`COC1(CC2CCCCC2)CCN(c2ccc(C(=O)NS(=O)(=O)c3cc([N+](=O)[O-])c(N[C@H](CCN(C)C)CSc4ccccc4)s3)cc2)CC1` [Example 1, 4-[4-(cyclohexylmethyl)-4-methoxypiperidin-1-yl]-N-{[5-({(1R)-3-(dimethylamino)-1-[(phenylthio)methyl]propyl}amino)-4-nitrothien-2-yl]sulfonyl}benzamide] registered a Ki of 51.4 nM.

`CN(CCSc1ccccc1)C1CCN(S(=O)(=O)NC(=O)c2ccc(N3CCN(Cc4ccccc4-c4ccc(Cl)cc4)CC3)cc2)CC1` [Example 6, 4-{4-[(4′-chloro-1,1′-biphenyl-2-yl)methyl]piperazin-1-yl}-N-[(4-{methyl[2-(phenylthio)ethyl]amino}piperidin-1-yl)sulfonyl]benzamide] registered an inhibition constant (Ki) of 704 nM.

`O=C(NS(=O)(=O)c1nc2ccccc2s1)c1ccc(N2CCN(Cc3ccccc3-c3ccc(Cl)cc3)CC2)cc1` [Example 18, N-(1,3-benzothiazol-2-ylsulfonyl)-4-{4-[(4′-chloro-1,1′-biphenyl-2-yl)methyl]piperazin-1-yl}benzamide] returned a Ki of 129 nM. This Ki lies about 5.5-fold lower than the previous one.

`Cc1cc(C)n2nc(S(=O)(=O)NC(=O)c3ccc(N4CCN(CC5=C(c6ccc(Cl)cc6)CC(C)(C)CC5)CC4)cc3Oc3cc4cc[nH]c4cc3F)nc2n1` [Example 41, 4-(4-{[2-(4-chlorophenyl)-4,4-dimethylcyclohex-1-en-1-yl]methyl}piperazin-1-yl)-N-[(5,7-dimethyl[1,2,4]triazolo[1,5-a]pyrimidin-2-yl)sulfonyl]-2-[(6-fluoro-1H-indol-5-yl)oxy]benzamide] returned an inhibition constant Ki of 0.053 nM.

In turn, `O=C(NCc1ccc(S(=O)(=O)NC(=O)c2ccc(N3CCN(Cc4ccccc4-c4ccc(Cl)cc4)CC3)cc2)s1)c1ccccc1` [Example 12, N-({5-[(benzoylamino)methyl]thien-2-yl}sulfonyl)-4-{4-[(4′-chloro-1,1′-biphenyl-2-yl)methyl]piperazin-1-yl}benzamide] came in with an inhibition constant Ki of 393 nM.

Compound `CC(C)N(C)CC[C@H](CSc1ccccc1)Nc1sc(S(=O)(=O)NC(=O)c2ccc(N3CCN(CC4=C(c5ccc(Cl)cc5)CCCC4)CC3)cc2)cc1[N+](=O)[O-]` [Example 8, 4-(4-{[2-(4-chlorophenyl)cyclohex-1-en-1-yl]methyl}piperazin-1-yl)-N-{[5-({(1R)-3-[isopropyl(methyl)amino]-1-[(phenylthio)methyl]propyl}amino)-4-nitrothien-2-yl]sulfonyl}benzamide] came in with a Ki of 0.064 nM.

As for `CN(C)CC[C@H](CSc1ccccc1)Nc1sc(S(=O)(=O)NC(=O)c2ccc(N3CCN(CC=C(c4ccccc4)c4ccccc4)CC3)cc2)cc1[N+](=O)[O-]` [Example 3, N-{[5-({(1R)-3-(dimethylamino)-1-[(phenylthio)methyl]propyl}amino)-4-nitrothien-2-yl]sulfonyl}-4-[4-(3,3-diphenylprop-2-enyl)piperazin-1-yl]benzamide], the affinity corresponds to a Ki of 51.7 nM.

The compound `Cc1nc(OCC2(F)CCOCC2)sc1S(=O)(=O)NC(=O)c1ccc(N2CCN(CC3=C(c4ccc(Cl)cc4)CC(C)(C)CC3)CC2)cc1Oc1cccc2[nH]cnc12` [Example 46, 2-(1H-benzimidazol-4-yloxy)-4-(4-{[2-(4-chlorophenyl)-4,4-dimethylcyclohex-1-en-1-yl]methyl}piperazin-1-yl)-N-({2-[(4-fluorotetrahydro-2H-pyran-4-yl)methoxy]-4-methyl-1,3-thiazol-5-yl}sulfonyl)benzamide] displayed an inhibitory constant (Ki) of 1.75 nM. This Ki lies about 30-fold lower than the previous one.

As for `Cc1nn(C)c(Cl)c1S(=O)(=O)NC(=O)c1ccc(N2CCN(Cc3ccccc3-c3ccc(Cl)cc3)CC2)cc1` [Example 29, 4-{4-[(4′-chloro-1,1′-biphenyl-2-yl)methyl]piperazin-1-yl}-N-[(5-chloro-1,3-dimethyl-1H-pyrazol-4-yl)sulfonyl]benzamide], the affinity, expressed as Ki, was 340 nM.

On to `CC(=O)Nc1nc(C)c(S(=O)(=O)NC(=O)c2ccc(N3CCN(Cc4ccccc4-c4ccc(Cl)cc4)CC3)cc2)s1` [Example 11, N-{[2-(acetylamino)-4-methyl-1,3-thiazol-5-yl]sulfonyl}-4-{4-[(4′-chloro-1,1′-biphenyl-2-yl)methyl]piperazin-1-yl}benzamide], for which the affinity, expressed as Ki, was 177 nM.

On to `Cc1nc(OCC2(F)CCOCC2)sc1S(=O)(=O)NC(=O)c1ccc(N2CCN(CC3=C(c4ccc(Cl)cc4)CC(C)(C)CC3)CC2)cc1Oc1cccc2[nH]ncc12` [Example 48, 2-(1H-indazol-4-yloxy)-4-(4-((2-(4-chlorophenyl)-4,4-dimethylcyclohex-1-enyl)methyl)piperazin-1-yl)-N-(2-((4-fluorotetrahydro-2H-pyran-4-yl)methoxy)-4-methylthiazol-5-ylsulfonyl)benzamide], for which the affinity, expressed as Ki, was 1.64 nM.

As to `COC(=O)c1ccc(S(=O)(=O)NC(=O)c2ccc(N3CCN(Cc4ccccc4-c4ccc(Cl)cc4)CC3)cc2)n1C` [Example 22, methyl 5-{[(4-{4-[(4′-chloro-1,1′-biphenyl-2-yl)methyl]piperazin-1-yl}benzoyl)amino]sulfonyl}-1-methyl-1H-pyrrole-2-carboxylate], the Ki amounted to 188 nM.

`Cc1nn(CCCl)c(C)c1S(=O)(=O)NC(=O)c1ccc(N2CCN(Cc3ccccc3-c3ccc(Cl)cc3)CC2)cc1` [Example 27, 4-{4-[(4′-chloro-1,1′-biphenyl-2-yl)methyl]piperazin-1-yl}-N-{[1-(2-chloroethyl)-3,5-dimethyl-1H-pyrazol-4-yl]sulfonyl}benzamide]: the Ki worked out at 434 nM.

`Cc1nc(OCC2(F)CCOCC2)sc1S(=O)(=O)NC(=O)c1ccc(N2CCN(CC3=C(c4ccc(Cl)cc4)CC(C)(C)CC3)CC2)cc1Oc1cnc2[nH]ccc2c1` [Example 45, 4-(4-{[2-(4-chlorophenyl)-4,4-dimethylcyclohex-1-en-1-yl]methyl}piperazin-1-yl)-N-({2-[(4-fluorotetrahydro-2H-pyran-4-yl)methoxy]-4-methyl-1,3-thiazol-5-yl}sulfonyl)-2-(1H-pyrrolo[2,3-b]pyridin-5-yloxy)benzamide] came in with an inhibitory constant (Ki) of 6.73 nM. This Ki lies about 64-fold lower than the previous one.

As for `CC(C)N(C)CC[C@H](CSc1ccccc1)Nc1sc(S(=O)(=O)NC(=O)c2ccc(N3CCN(CC4=C(c5ccc(Cl)cc5)CCC(C)(C)C4)CC3)cc2)cc1[N+](=O)[O-]` [Example 9, 4-(4-{[2-(4-chlorophenyl)-5,5-dimethylcyclohex-1-en-1-yl]methyl}piperazin-1-yl)-N-{[5-({(1R)-3-[isopropyl(methyl)amino]-1-[(phenylthio)methyl]propyl}amino)-4-nitrothien-2-yl]sulfonyl}benzamide], the inhibition constant Ki is 0.307 nM.

`Cc1cc(C)n2nc(S(=O)(=O)NC(=O)c3ccc(N4CCN(CC5=C(c6ccc(Cl)cc6)CC(C)(C)CC5)CC4)cc3Oc3cc4cc[nH]c4c(F)c3F)nc2n1` [Example 42, 4-(4-{[2-(4-chlorophenyl)-4,4-dimethylcyclohex-1-en-1-yl]methyl}piperazin-1-yl)-2-[(6,7-difluoro-1H-indol-5-yl)oxy]-N-[(5,7-dimethyl[1,2,4]triazolo[1,5-a]pyrimidin-2-yl)sulfonyl]benzamide]: the inhibitory constant (Ki) amounted to 0.039 nM.

As to `O=C(NS(=O)(=O)c1cc([N+](=O)[O-])c(N2CCCCC2)s1)c1ccc(N2CCN(Cc3ccccc3-c3ccc(Cl)cc3)CC2)cc1` [Example 30, 4-{4-[(4′-chloro-1,1′-biphenyl-2-yl)methyl]piperazin-1-yl}-N-[(4-nitro-5-piperidin-1-ylthien-2-yl)sulfonyl]benzamide], the affinity corresponds to a Ki of 269 nM.

The compound `CC1(C)CCC(CN2CCN(c3ccc(C(=O)NS(=O)(=O)c4cc([N+](=O)[O-])c(NCCCN5CCCC5)s4)c(Oc4ccc5[nH]ccc5c4)c3)CC2)=C(c2ccc(Cl)cc2)C1` [Example 33, 4-(4-{[2-(4-chlorophenyl)-4,4-dimethylcyclohex-1-en-1-yl]methyl}piperazin-1-yl)-2-(1H-indol-5-yloxy)-N-({4-nitro-5-[(3-pyrrolidin-1-ylpropyl)amino]thien-2-yl}sulfonyl)benzamide] displayed a Ki of 0.649 nM. Against the preceding compound, the Ki is about 410-fold lower.

Broadly, the Ki is a dissociation constant, usually derived from enzyme kinetics or from competition with a known ligand. A lower Ki goes with tighter binding.
